Experiments:
[1] = tested on: db/db mice; assay: Plasma N-glycan profile (GLYCANMAP, MALDI-TOF MS) of db/db mice treated with rosiglitazone, initial study (Table 1 summarises both rosiglitazone studies); assay type: in vivo, mouse; details: first rosiglitazone study, db/db mice vs vehicle
Protocol: A 10 μl aliquot of each plasma sample was spiked with internal standard (700 pmol) and analyzed for N-linked glycans using Ezose Sciences' GLYCANMAP methodology. The samples were denatured and then digested with trypsin, followed by heat-inactivation. The mixture was then treated with PNGase F. After enzymatic release of N-glycans, aliquots were subjected to solid-phase processing using BLOTGLYCO beads. Following capture on the beads, the sialic acid residues were methyl esterified. The glycans were simultaneously released from the beads and labeled, and then aliquots of the recovered materials were spotted onto a MALDI target plate. […]
Rosigilitazone is a member of the athiazolidinedione class of anti-diabetic drugs, and is marketed by Glaxo under the trade name AVANDIA. […] A baseline (Day 0) sample was not analyzed in the initial rosiglitazone study, but was included in a subsequent rosiglitazone confirmatory study. […]
Several criteria were used in the initial rosiglitazone study to select the most promising biomarkers. Statistical significance was evaluated based on the Mann-Whitney test or Student's t-test and changes considered significant if the resulting p-value was less than 0.05. […] After the confirmatory rosiglitazone study, one glycan (530010) that had been excluded in the initial study was re-evaluated. […]

[2] = tested on: db/db mice; assay: Plasma N-glycan profile of db/db mice treated with insulin detemir; assay type: in vivo, mouse; details: for Direction of change of hybrid glycan 430010 / Direction of change of hybrid glycan 530010 / Direction of change of hybrid glycan 630010: days 7, 14, 21, significant as early as Day 7; for Direction of change of high mannose glycan 520000 (Man5GlcNAc2) / Direction of change of high mannose glycan 620000 (Man6GlcNAc2) / Direction of change of high mannose glycan 720000 (Man7GlcNAc2) / Direction of change of high mannose glycan 820000 (Man8GlcNAc2): significant at Day 7, 14 and 21
Protocol: A 10 μl aliquot of each plasma sample was spiked with internal standard (700 pmol) and analyzed for N-linked glycans using Ezose Sciences' GLYCANMAP methodology. The samples were denatured and then digested with trypsin, followed by heat-inactivation. The mixture was then treated with PNGase F. After enzymatic release of N-glycans, aliquots were subjected to solid-phase processing using BLOTGLYCO beads. Following capture on the beads, the sialic acid residues were methyl esterified. The glycans were simultaneously released from the beads and labeled, and then aliquots of the recovered materials were spotted onto a MALDI target plate. Steps from initial aliquoting to spotting on the MALDI plate were performed using the fully automated SWEETBLOT technology. MALDI-TOF MS analysis was performed on an ultraflex III mass spectrometer (Bruker Daltonics) in the positive-ion, reflector mode. Each sample from the BLOTGLYCO bead processing step was spotted in quadruplicate, and spectra were obtained in an automated manner using the AutoXecute feature in flexControl software (Bruker Daltonics). Proposed glycan structures were assigned based on molecular weight. These methods have been described previously by Nishimura, Furukawa and Miura (Nishimura et al., Angew Chem. Int. Ed. Engl., 44: 91-96 (2004); Furukawa et al., Anal. Chem., 80: 1094-1101 (2008); Miura et al., Chem.-A Eur. J, 13: 4797-4804 (2007)). Alternatively, standard fluorescent HPLC or capillary electrophoresis methods with 2-AA, 2-AB, or APTS labeling can be used to monitor the glycan levels and changes in glycan patterns.
A further study was undertaken to evaluate the performance of candidate biomarkers discovered using rosiglitazone in mice treated with a diabetes drug having a different mechanism of action. The candidate biomarkers that were identified in Example 1 were evaluated in db/db mice treated with insulin detemir and vehicle.
Plasma samples were analyzed from ten db/db mice at baseline (0 days) and from 20 db/db mice (ten vehicle and ten insulin detemir-treated) at 7, 14, and 21 days. Sample preparation and analysis followed the protocol described in Example 1.
Concentrations of individual glycans in insulin detemir- and vehicle-treated db/db mice were compared at each time-point using the Student's t-test. N-glycans which yielded p-values<0.05 in this analysis were considered significant. Time-dependence was also evaluated for each of the candidate biomarkers by comparing each time-point to baseline.

[3] = db/db mice plasma vs vehicle, listed as Insulin Detemir

Row | Compound | Time until highly significant difference (p<0.001) was achieved for HbA1c [1] | Changes in HbA1c compared with rosiglitazone ([2]; db/db mice) | Magnitude of changes in high-mannose glycans compared with rosiglitazone ([2]; db/db mice plasma) | Changes in Glycan 540020 ([2]; db/db mice plasma vs vehicle) | Changes in O-acetylated N-glycans ([2]; db/db mice plasma vs vehicle) | Changes in fucosylated N-glycans ([2]; db/db mice plasma vs vehicle) | Direction of change of hybrid glycan 430010 ([2]; db/db mice plasma vs vehicle) | Direction of change of hybrid glycan 530010 ([2]; db/db mice plasma vs vehicle) | Direction of change of hybrid glycan 630010 ([2]; db/db mice plasma vs vehicle) | Direction of change of hybrid glycan 430010 [2, 3] | Direction of change of hybrid glycan 530010 [2, 3] | Direction of change of hybrid glycan 630010 [2, 3] | Direction of change of high mannose glycan 520000 (Man5GlcNAc2) ([2]; db/db mice plasma vs vehicle) | Direction of change of high mannose glycan 620000 (Man6GlcNAc2) ([2]; db/db mice plasma vs vehicle) | Direction of change of high mannose glycan 720000 (Man7GlcNAc2) ([2]; db/db mice plasma vs vehicle) | Direction of change of high mannose glycan 820000 (Man8GlcNAc2) ([2]; db/db mice plasma vs vehicle) | Direction of change of high mannose glycan 520000 (Man5GlcNAc2) [2, 3] | Direction of change of high mannose glycan 620000 (Man6GlcNAc2) [2, 3] | Direction of change of high mannose glycan 720000 (Man7GlcNAc2) [2, 3] | Direction of change of high mannose glycan 820000 (Man8GlcNAc2) [2, 3]
1 | CN(CCOc1ccc(CC2SC(=O)NC2=O)cc1)c1ccccn1 (centres unmarked) [rosiglitazone] | 21 days | – | – | – | – | – | – | – | – | – | – | – | – | – | – | – | – | – | – | –
2 | insulin detemir | – | more subtle changes | lower in magnitude | no significant changes | no significant changes | no significant changes | significant decreases | significant decreases | significant decreases | Decreased | Decreased | Decreased | lower levels | lower levels | lower levels | lower levels | Decreased | Decreased | Decreased | Decreased
